Patent US20230002359A1, “PESTICIDALLY ACTIVE FUSED BICYCLIC HETEROAROMATIC COMPOUNDS” (priority 2019, published 2023)

Key:
Format in all cases: in vivo
[1] = tested on: Diabrotica Balteata (Corn Root Worm); assay: Example B1: Diabrotica balteata (corn root worm), maize sprouts sprayed, L2 larvae; conditions: 96 h, application rate of 200 ppm, 4 days after infestation, L2 larvae, read-out: control in at least one of the two categories (mortality or growth inhibition)
How it was run: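 Read-out is mortality plus growth inhibition relative to untreated controls, assessed 4 days after infestation. Sprouts resting on agar are sprayed with aqueous solutions derived from 10′000 ppm DMSO stocks and left to dry before L2 larvae (6 to 10 per well) are added.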

[2] = tested on: Spodoptera littoralis (Egyptian Cotton Leaf Worm); assay: Example B7: Spodoptera littoralis (Egyptian cotton leaf worm), cotton leaf discs sprayed, L1 larvae; conditions: foliar, 72 h, application rate of 200 ppm, 3 days after infestation, L1 larvae, read-out: control in at least one of the three categories (mortality, anti-feedant effect, or growth inhibition)
How it was run: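 Leaf discs on agar; spray, aqueous dilution of 10′000 ppm DMSO stock; dry; 5 L1 larvae/disc. Read at 3 d post-infestation: mortality, antifeedant, growth inhibition vs untreated. Control = ≥1 category above untreated.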

[3] = tested on: Plutella xylostella (Diamond Back Moth); assay: Example B4: Plutella xylostella (diamond back moth), artificial diet, eggs, 24-well; conditions: 192 h, application rate of 200 ppm, 8 days after infestation, eggs, read-out: control in at least one of the two categories (mortality or growth inhibition)
Protocol: 24-well microtiter plates with artificial diet were treated with aqueous test solutions prepared from 10′000 ppm DMSO stock solutions by pipetting. After drying, Plutella eggs were pipetted through a plastic stencil onto a gel blotting paper and the plate was closed with it. The samples were assessed for mortality and growth inhibition in comparison to untreated samples 8 days after infestation.

[4] = tested on: Myzus persicae (Green Peach Aphid); assay: Example B6: Myzus persicae (green peach aphid) intrinsic activity, sucrose solution; conditions: 120 h, test rate of 12 ppm, 5 days after infestation, intrinsic activity, read-out: mortality
How it was run: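 Compounds from 10′000 ppm DMSO stocks were mixed into sucrose solution in 24-well plates sealed with Parafilm. Aphid-infested pea seedlings were set on the membrane and the plate inverted so aphids fed through it. Mortality scored 5 days after infestation.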

[5] = tested on: Myzus persicae (Green Peach Aphid); assay: Example B5: Myzus persicae (green peach aphid) feeding/contact activity, sunflower leaf discs; conditions: foliar, 144 h, application rate of 200 ppm, 6 days after infestation
Protocol: Sunflower leaf discs were placed onto agar in a 24-well microtiter plate and sprayed with aqueous test solutions prepared from 10′000 ppm DMSO stock solutions. After drying, the leaf discs were infested with an aphid population of mixed ages. The samples were assessed for mortality 6 days after infestation.

[6] = tested on: Chilo suppressalis (Striped Rice Stemborer); assay: Example B3: Chilo suppressalis (striped rice stemborer), artificial diet, L2 larvae; conditions: 144 h, application rate of 200 ppm, 6 days after infestation, L2 larvae, read-out: control in at least one of the three categories (mortality, anti-feedant effect, or growth inhibition)
How it was run: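 First, artificial diet was treated with aqueous solutions prepared from 10'000 ppm DMSO stocks; second, after drying, L2 larvae (6-8/well) were added; third, effects were assessed at 6 days against untreated controls, counting control when any of three categories was higher.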

[7] = tested on: Euschistus heros (Neotropical Brown Stink Bug); assay: Example B2: Euschistus heros (neotropical brown stink bug), soybean leaves sprayed, N2 nymphs; conditions: 120 h, application rate of 200 ppm, 5 days after infestation, N2 nymphs, read-out: control in at least one of the two categories (mortality or growth inhibition)
Protocol: Soybean leaves on agar in 24-well microtiter plates were sprayed with aqueous test solutions prepared from 10′000 ppm DMSO stock solutions. After drying the leaves were infested with N2 nymphs. The samples were assessed for mortality and growth inhibition in comparison to untreated samples 5 days after infestation.

C[C@@H](c1ncnn1-c1ccc(C#N)cn1)N(C)c1ncnc2c(C(F)(F)F)cc(C(F)(F)F)cc12 [P.54, 6-[5-[(1S)-1-[[6,8-bis(trifluoromethyl)quina-zolin-4-yl]-methyl-amino]ethyl]-1,2,4-triazol-1-yl]pyridine-3-carbonitrile]
≥ 80%: percent control (mortality or growth inhibition) at 200 ppm [1] | percent control (mortality, anti-feedant effect or growth inhibition) at 200 ppm [2] | percent control (mortality or growth inhibition) at 200 ppm [3] | mortality at 12 ppm [4] | mortality at 200 ppm [5] | percent control (mortality, anti-feedant effect or growth inhibition) at 200 ppm [6] | percent control (mortality or growth inhibition) at 200 ppm [7]

C[C@H](c1ncnn1-c1ccc(C#N)cn1)N(C)c1ncnc2c(C(F)(F)F)cc(Br)cc12 [P.203, 6-[5-[(1R)-1-[[6-bromo-8-(trifluoromethyl)quinazolin-4-yl]-methyl-amino]ethyl]-1,2,4-triazol-1-yl]pyridine-3-carbonitrile]
≥ 80%: percent control (mortality or growth inhibition) at 200 ppm [1] | percent control (mortality, anti-feedant effect or growth inhibition) at 200 ppm [2] | percent control (mortality or growth inhibition) at 200 ppm [3] | mortality at 12 ppm [4] | mortality at 200 ppm [5] | percent control (mortality, anti-feedant effect or growth inhibition) at 200 ppm [6] | percent control (mortality or growth inhibition) at 200 ppm [7]

C[C@@H](c1ncnn1-c1ccc(C#N)cn1)N(CC1CC1)c1ncnc2c(Cl)cc(C(F)(F)F)cc12 [P.271, 6-[5-[(1S)-1-[[8-chloro-6-(trifluoromethyl)quinazolin-4-yl]-(cyclopropylmethyl)amino]ethyl]-1,2,4-triazol-1-yl]pyridine-3-carbonitrile]
≥ 80%: percent control (mortality or growth inhibition) at 200 ppm [1] | percent control (mortality, anti-feedant effect or growth inhibition) at 200 ppm [2] | percent control (mortality or growth inhibition) at 200 ppm [3] | mortality at 12 ppm [4] | mortality at 200 ppm [5] | percent control (mortality, anti-feedant effect or growth inhibition) at 200 ppm [6] | percent control (mortality or growth inhibition) at 200 ppm [7]

C[C@@H](c1ncnn1-c1ccc(C#N)cn1)N(C)c1ncnc2c(C(=O)C3CC3)cc(C(F)(F)F)cc12 [P.227, 6-[5-[(1S)-1-[[8-(cyclopropanecarbonyl)-6-(trifluoromethyl)quinazolin-4-yl]-methyl-amino]ethyl]-1,2,4-triazol-1-yl]pyridine-3-carbonitrile]
≥ 80%: percent control (mortality or growth inhibition) at 200 ppm [1] | percent control (mortality, anti-feedant effect or growth inhibition) at 200 ppm [2] | percent control (mortality or growth inhibition) at 200 ppm [3] | mortality at 12 ppm [4] | mortality at 200 ppm [5] | percent control (mortality, anti-feedant effect or growth inhibition) at 200 ppm [6] | percent control (mortality or growth inhibition) at 200 ppm [7]

C[C@H](Nc1ncnc2c(C(F)(F)F)cc(C(F)(F)F)cc12)c1ncnn1-c1ncccn1 [P.1, N-[(1S)-1-(2-pyrimidin-2-yl-1,2,4-triazol-3-yl)ethyl]-6,8-bis(trifluoromethyl)quina-zolin-4-amine]
≥ 80%: percent control (mortality or growth inhibition) at 200 ppm [1] | percent control (mortality, anti-feedant effect or growth inhibition) at 200 ppm [2] | percent control (mortality or growth inhibition) at 200 ppm [3] | mortality at 12 ppm [4] | mortality at 200 ppm [5] | percent control (mortality, anti-feedant effect or growth inhibition) at 200 ppm [6] | percent control (mortality or growth inhibition) at 200 ppm [7]

CC(c1ncnn1-c1ncccn1)N(C)c1ncnc2c(OC(F)F)cc(Br)cc12 (stereo not drawn) [P.245, 6-bromo-8-(difluoromethoxy)-N-methyl-N-[1-(2-pyrimidin-2-yl-1,2,4-triazol-3-yl)ethyl]quinazolin-4-amine]
≥ 80%: percent control (mortality or growth inhibition) at 200 ppm [1] | percent control (mortality, anti-feedant effect or growth inhibition) at 200 ppm [2] | percent control (mortality or growth inhibition) at 200 ppm [3] | mortality at 12 ppm [4] | mortality at 200 ppm [5] | percent control (mortality, anti-feedant effect or growth inhibition) at 200 ppm [6] | percent control (mortality or growth inhibition) at 200 ppm [7]

CC(Nc1ncnc2c(OC(F)(F)F)cc(Br)cc12)c1ncnn1-c1ncccn1 (stereo not drawn) [P.248, 6-bromo-N-[1-(2-pyrimidin-2-yl-1,2,4-triazol-3-yl)ethyl]-8-(trifluoromethoxy)quina-zolin-4-amine]
≥ 80%: percent control (mortality or growth inhibition) at 200 ppm [1] | percent control (mortality, anti-feedant effect or growth inhibition) at 200 ppm [2] | percent control (mortality or growth inhibition) at 200 ppm [3] | mortality at 12 ppm [4] | mortality at 200 ppm [5] | percent control (mortality, anti-feedant effect or growth inhibition) at 200 ppm [6] | percent control (mortality or growth inhibition) at 200 ppm [7]

CCN(c1ncnc2c(C(F)(F)F)cc(Cl)cc12)[C@@H](C)c1ncnn1-c1ccc(C#N)cn1 [P.128, 6-[5-[(1S)-1-[[6-chloro-8-(trifluoromethyl)quinazolin-4-yl]-ethyl-amino]ethyl]-1,2,4-triazol-1-yl]pyridine-3-carbonitrile]
≥ 80%: percent control (mortality or growth inhibition) at 200 ppm [1] | percent control (mortality, anti-feedant effect or growth inhibition) at 200 ppm [2] | percent control (mortality or growth inhibition) at 200 ppm [3] | mortality at 12 ppm [4] | mortality at 200 ppm [5] | percent control (mortality, anti-feedant effect or growth inhibition) at 200 ppm [6] | percent control (mortality or growth inhibition) at 200 ppm [7]

C[C@@H](c1ncnn1-c1ncccn1)N(C)c1ncnc2c(I)cc(C(F)(F)F)cc12 [P.219, 8-iodo-N-methyl-N-[(1S)-1-(2-pyrimidin-2-yl-1,2,4-triazol-3-yl)ethyl]-6-(trifluoromethyl)quinazolin-4-amine]
≥ 80%: percent control (mortality or growth inhibition) at 200 ppm [1] | percent control (mortality, anti-feedant effect or growth inhibition) at 200 ppm [2] | percent control (mortality or growth inhibition) at 200 ppm [3] | mortality at 12 ppm [4] | mortality at 200 ppm [5] | percent control (mortality, anti-feedant effect or growth inhibition) at 200 ppm [6] | percent control (mortality or growth inhibition) at 200 ppm [7]

CC(c1ncnn1-c1ncccn1)N(C)c1ncnc2c(C(F)(F)F)cc(C(F)(F)F)cc12 (stereo not drawn) [P.27, N-methyl-N-[1-(2-pyrimidin-2-yl-1,2,4-triazol-3-yl)ethyl]-6,8-bis(trifluoromethyl)quinazolin-4-amine]
≥ 80%: percent control (mortality or growth inhibition) at 200 ppm [1] | percent control (mortality, anti-feedant effect or growth inhibition) at 200 ppm [2] | percent control (mortality or growth inhibition) at 200 ppm [3] | mortality at 12 ppm [4] | mortality at 200 ppm [5] | percent control (mortality, anti-feedant effect or growth inhibition) at 200 ppm [6] | percent control (mortality or growth inhibition) at 200 ppm [7]

CC(c1ncnn1-c1ccc(C#N)cn1)N(C)c1ncnc2c(C(F)(F)F)cc(C(F)(F)F)cc12 (stereo not drawn) [P.28, 6-[5-[1-[[6,8-bis(trifluoromethyl)quina-zolin-4-yl]-methyl-amino]ethyl]-1,2,4-triazol-1-yl]pyridine-3-carbonitrile]
≥ 80%: percent control (mortality or growth inhibition) at 200 ppm [1] | percent control (mortality, anti-feedant effect or growth inhibition) at 200 ppm [2] | percent control (mortality or growth inhibition) at 200 ppm [3] | mortality at 12 ppm [4] | mortality at 200 ppm [5] | percent control (mortality, anti-feedant effect or growth inhibition) at 200 ppm [6] | percent control (mortality or growth inhibition) at 200 ppm [7]

CCN(c1ncnc2c(C(F)(F)F)cc(C(F)(F)F)cc12)[C@@H](C)c1ncnn1-c1ccc(C#N)cn1 [P.168, 6-[5-[(1S)-1-[[6,8-bis(trifluoromethyl)quina-zolin-4-yl]-ethyl-amino]ethyl]-1,2,4-triazol-1-yl]pyridine-3-carbonitrile]
≥ 80%: percent control (mortality or growth inhibition) at 200 ppm [1] | percent control (mortality, anti-feedant effect or growth inhibition) at 200 ppm [2] | percent control (mortality or growth inhibition) at 200 ppm [3] | mortality at 12 ppm [4] | mortality at 200 ppm [5] | percent control (mortality, anti-feedant effect or growth inhibition) at 200 ppm [6] | percent control (mortality or growth inhibition) at 200 ppm [7]
